The values that follow come from US20100222396A1 (Novartis AG, priority 2009, published 2010).

For orientation: pKd means −log10 of the Kd, conventionally taken in molar units.

pKd: −log10 of the molar value.

In test [1] the target is T1, human orexin 1 receptor (hOx1R) (Homo sapiens, UniProt O43613).
T1 construct: expressed in transfected cells
T1 sequence (O43613 1-425): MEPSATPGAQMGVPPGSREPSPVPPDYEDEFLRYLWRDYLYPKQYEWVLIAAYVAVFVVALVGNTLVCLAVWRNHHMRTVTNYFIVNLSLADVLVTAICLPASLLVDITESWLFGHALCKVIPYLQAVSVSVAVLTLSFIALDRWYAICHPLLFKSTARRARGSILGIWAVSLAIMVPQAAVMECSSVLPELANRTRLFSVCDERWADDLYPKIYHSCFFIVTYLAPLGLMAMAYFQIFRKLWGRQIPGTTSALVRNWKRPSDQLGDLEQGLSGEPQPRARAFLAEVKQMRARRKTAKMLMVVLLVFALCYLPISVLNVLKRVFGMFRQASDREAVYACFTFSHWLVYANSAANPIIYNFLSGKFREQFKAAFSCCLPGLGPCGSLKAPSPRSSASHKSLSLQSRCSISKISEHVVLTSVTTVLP
The test is described as follows: Calcium accumulation in cells (FLIPR), antagonism of orexin A, hOx1R. It counts as cell-based. Conditions: cells expressing human orexin 1 receptor; IC50 vs orexin A converted by Cheng and Prusoff correction. The method in brief: (§1)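 Serum-starved receptor-expressing cells were loaded with Fluo-4-AM (2 μM) plus probenecid (0.1 mM) in HEPES buffer, pH 7.4, with 1% BSA, and Ca2+ fluorescence was read on FLIPR. Compounds (10^−9–10^−5 M) were added first, and orexin A was added one hour later to measure antagonism.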

The target in test [2] is T1, human orexin 1 receptor (hOx1R). The test is described as follows: Radioligand binding assay ([125I]orexin A competition), hOx1R. Conditions: CHO or HEK cell membranes, 1 h room temperature. The protocol: (§2) For crude cell membrane preparations, cells (CHO, Chinese hamster ovary or HEK, human embryonic kidney) expressing human orexin 1 or human orexin 2 receptors, were washed with HEPES (10 mM, pH 7.5), scraped off the culture plates with the same buffer, and centrifuged at 4° C. for 5 min at 2500×g. The cell pellet was either stored at −80° C. or used directly. Before the experiments, cell membranes were re-suspended in binding assay buffer (10 mM HEPES, 0.5% (w/v) bovine serum albumin, pH 7.5) by homogenisation with a Polytron homogeniser at 50 Hz for 20 s. Cell membranes were also used as made available by commercial providers.
(§3) In initial saturation experiments (to calculate Bmax), cell homogenates (150 μl) were incubated with 25-300 pM of the radioligand ([^125I]orexin A, 50 μl), 8 concentrations in triplicates in the presence or absence Orexin A (1 μM, 50 μl) to define non specific binding. Bound radioactivity was measured, and data were analysed with the program XLFIT or Graphpad Prism. Protein concentration was determined according to the Bradford/BioRad Protein Assay Kit.
(§4) In competition experiments, cell homogenates (150 μl) were incubated in assay buffer (10 mM HEPES, pH 7.5, 0.5% (w/v) bovine serum albumin, 5 mM MgCl2, […], and tween 0.05%) for 1 h at room temperature with about […] of the radioligand ([^125I]orexin A, 2100 Ci/mmole, 50 μl), and with various concentrations of compounds of the invention (50 μl) in triplicates; non-specific binding was determined in the presence of Orexin A (1 μM). Reactions were terminated by vacuum filtration, 3 washes of ice cold wash buffer (Tris-HCl pH 7.4/10 mM, with NaCl 154 mM). Competition data is expressed in Table 1 as Kd [μM].

For test [3], the target named is T2, human orexin 2 receptor (hOx2R) (Homo sapiens, UniProt O43614).
T2 construct: expressed in transfected cells
T2 sequence (O43614 1-444): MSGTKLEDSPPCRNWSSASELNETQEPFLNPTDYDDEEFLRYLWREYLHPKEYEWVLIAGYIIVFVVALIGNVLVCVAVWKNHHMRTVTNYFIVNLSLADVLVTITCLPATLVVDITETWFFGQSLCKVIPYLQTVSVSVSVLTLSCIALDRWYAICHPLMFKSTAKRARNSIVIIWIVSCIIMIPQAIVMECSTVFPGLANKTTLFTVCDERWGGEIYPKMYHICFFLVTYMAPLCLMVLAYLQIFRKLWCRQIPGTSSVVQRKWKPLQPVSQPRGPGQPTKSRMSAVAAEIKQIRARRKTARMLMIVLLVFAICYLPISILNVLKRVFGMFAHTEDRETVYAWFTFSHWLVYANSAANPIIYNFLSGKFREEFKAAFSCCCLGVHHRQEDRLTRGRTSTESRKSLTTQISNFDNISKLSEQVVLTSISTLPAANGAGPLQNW
The test is described as follows: Calcium accumulation in cells (FLIPR), antagonism of orexin A, hOx2R. Conditions: cells expressing human orexin 2 receptor; IC50 vs orexin A converted by Cheng and Prusoff correction. It counts as cell-based. The method in brief:
as §1

The target of test [4] is T2, human orexin 2 receptor (hOx2R). The test is described as follows: Radioligand binding assay ([125I]orexin A competition), hOx2R. The following applies: CHO or HEK cell membranes, 1 h room temperature. As for the experimental part: as §2, §3, §4

For `Cc1cc(C)cc(C(=O)N(C)[C@H](CCNC(=O)c2ccccn2)Cc2ccccc2)c1` [Example 97, Pyridine-2-carboxylic acid {(S)-3-[(3,5-dimethyl-benzoyl)-methyl-amino]-4-phenyl-butyl}-amide], the negative logarithm of the Kd (pKd) in test [1] was 6.73; in test [2], 7.34; in test [3] it was 7.41; in test [4] it was 7.52.
Consider `CCCN(C(=O)c1cccc2c1OCO2)[C@H](CCNC(=O)c1ccccn1)Cc1ccccc1` [Example 59, Pyridine-2-carboxylic acid {(S)-3-[(benzo[1,3]dioxole-4-carbonyl)-propyl-amino]-4-phenyl-butyl}-amide], for which the negative-log Kd (pKd) in test [1] is 5.69; in test [2], 5.44; in test [3] it was 6.25; in test [4], 5.44.
As for `Cc1nc(C(=O)NCC[C@H](Cc2ccccc2)N(C)C(=O)c2ccc3c(c2)OCO3)c(-c2ccccc2F)s1` [Example 83, 5-(2-Fluoro-phenyl)-2-methyl-thiazole-4-carboxylic acid {(S)-3-[(benzo[1,3]dioxole-5-carbonyl)-methyl-amino]-4-phenyl-butyl}-amide], the negative logarithm of the Kd (pKd) in test [1] was 7.38; in test [2] it was 7.27; in test [3], 8.52; in test [4], 7.68.
`CCCOc1cccc(C(=O)N(C)[C@H](CCNC(=O)c2cccn2C)Cc2ccccc2)c1` [Example 126]: the negative-log Kd (pKd) in test [1] was 5.68; in test [2] it was 5.61; in test [3], 7.25; in test [4] it was 7.06.
In the case of `CCCN(C(=O)c1ccc2c(c1)OCO2)[C@H](CCNC(=O)c1ccccn1)Cc1ccccc1` [Example 13, Pyridine-2-carboxylic acid {(S)-3-[(benzo[1,3]dioxole-5-carbonyl)-propyl-amino]-4-phenyl-butyl}-amide], the negative logarithm of the Kd (pKd) is 5.66 in test [1], 6.09 in test [2], 7.13 in test [3] and 6.97 in test [4].
For `CN(C(=O)c1ccc2c(c1)OCO2)[C@H](CCNC(=O)c1cc2ccccc2[nH]1)Cc1ccccc1` [Example 14, 1H-Indole-2-carboxylic acid {(S)-3-[(benzo[1,3]dioxole-5-carbonyl)-methyl-amino]-4-phenyl-butyl}-amide], the pKd in test [1] was 6.22; in test [2] it was 5.97; in test [3], 6.97; in test [4], 6.28.
Consider `CN(C(=O)c1ccc2c(c1)CCO2)[C@H](CCNC(=O)c1ccccn1)Cc1ccccc1` [Example 29, Pyridine-2-carboxylic acid {(8)-3-[(2,3-dihydro-benzofuran-5-carbonyl)-methyl-amino]-4-phenyl-butyl}-amide], for which the negative logarithm of the Kd (pKd) in test [1] was 5.66; in test [2], 6.29; in test [3], 6.80; in test [4], 6.43.
Turning to `CN(C(=O)c1ccc2c(c1)OCO2)[C@H](CCNC(=O)c1nc2ccccc2n1C)Cc1ccccc1` [Example 31, 1-Methyl-1H-benzoimidazole-2-carboxylic acid {(S)-3-[(benzo[1,3]dioxole-5-carbonyl)-methyl-amino]-4-phenyl-butyl}-amide], the pKd was 7.24 in test [1], 6.79 in test [2], 7.37 in test [3] and 6.39 in test [4].
`CN(C(=O)c1cc(C(F)(F)F)cc(C(F)(F)F)c1)[C@H](CCNC(=O)c1nc2ccccc2n1C)Cc1ccccc1` [Example 12, 1-Methyl-1H-benzoimidazole-2-carboxylic acid {(S)-3-[(3,5-bis-trifluoromethyl-benzoyl)-methyl-amino]-4-phenyl-butyl}-amide]: the pKd in test [1] was 6.36; in test [2] it was 5.97; in test [3], 7.40; in test [4], 7.01.
The corresponding values for `CN(C(=O)c1cccc2cc[nH]c12)[C@H](CCNC(=O)c1ccccn1)Cc1ccccc1` [Example 38, 1H-Indole-7-carboxylic acid {(S)-1-benzyl-3-[(pyridine-2-carbonyl)-amino]-propyl}-methyl-amide] are 7.46, 7.07, 6.79 and 6.23.
As for `CN(C(=O)c1cccc(OC(F)(F)F)c1)[C@H](CCNC(=O)c1cccn1C)Cc1ccccc1` [Example 123, 1-Methyl-1H-pyrrole-2-carboxylic acid {(S)-3-[methyl-(3-trifluoromethoxy-benzoyl)-amino]-4-phenyl-butyl}-amide], the pKd in test [1] was 6.06; in test [2] it was 5.80; in test [3], 8.15; in test [4] it was 7.52.
`COc1cccc(C(=O)N(C)[C@H](CCNC(=O)c2cccn2C)Cc2ccccc2)c1` [Example 103, 1-Methyl-1H-pyrrole-2-carboxylic acid {(S)-3-[(3-methoxy-benzoyl)-methyl-amino]-4-phenyl-butyl}-amide]: the negative logarithm of the Kd (pKd) in test [1] is 5.85; in test [2] it was 6.20; in test [3] it was 8.10; in test [4] it was 7.72.
Regarding `CN(C(=O)c1ccccc1)[C@H](CCNC(=O)c1nc2ccccc2n1C)Cc1ccccc1` [Example 48, 1-Methyl-1H-benzoimidazole-2-carboxylic acid [(S)-3-(benzoyl-methyl-amino)-4-phenyl-butyl]-amide], the pKd in test [1] is 6.06; in test [2] it was 5.55; in test [3], 7.08; in test [4], 6.03.
`CN(C(=O)c1cc(C(F)(F)F)cc(C(F)(F)F)c1)C(CCNC(=O)c1ccc2c(ccn2C)c1)Cc1ccccc1` (centres unmarked) [Example 60, 1-Methyl-1H-indole-5-carboxylic acid {3-[(3,5-bis-trifluoromethyl-benzoyl)-methyl-amino]-4-phenyl-butyl}-amide]: the negative logarithm of the Kd (pKd) in test [1] was 5.46; in test [2] it was 4.76; in test [3], 6.44; in test [4] it was 5.41.
For `COc1cc(OC)cc(C(=O)N(C)[C@H](CCNC(=O)c2cccn2C)Cc2ccccc2)c1` [Example 104, 1-Methyl-1H-pyrrole-2-carboxylic acid {(S)-3-[(3,5-dimethoxy-benzoyl)-methyl-amino]-4-phenyl-butyl}-amide], the negative logarithm of the Kd (pKd) in test [1] is 6.22; in test [2], 6.91; in test [3], 8.40; in test [4], 8.22.
Regarding `CN(C(=O)c1ccc2c(c1)OC(F)(F)O2)[C@H](CCNC(=O)c1cccn1C)Cc1ccccc1` [Example 107, 1-Methyl-1H-pyrrole-2-carboxylic acid {(S)-3-[(2,2-difluoro-benzo[1,3]dioxole-5-carbonyl)-methyl-amino]-4-phenyl-butyl}-amide], the negative-log Kd (pKd) in test [1] was 5.97; in test [2], 5.60; in test [3], 7.27; in test [4], 6.79.
Turning to `CN(C(=O)c1cc(F)cc(F)c1)[C@H](CCNC(=O)c1ccccn1)Cc1ccccc1` [Example 34, Pyridine-2-carboxylic acid {(S)-3-[(3,5-difluoro-benzoyl)-methyl-amino]-4-phenyl-butyl}-amide], the negative logarithm of the Kd (pKd) is 6.14 in test [1], 6.60 in test [2], 6.25 in test [3] and 6.33 in test [4].
